Laboratory results as given in patent US20030072716A1, “Renewable, carbohydrate based CO2-philes” (priority 2001, published 2003).

Experiments:
[1] = Deliquescence, swelling and dissolution in CO2 in a high-pressure view cell near room temperature; assay type: physicochemical; conditions: for solubility / miscibility in liquid CO2: BGLU at 23.0° C., 60.5 bar
Text: The interaction of BGLU in carbon dioxide was examined in a high-pressure view cell. The BGLU was exposed to carbon dioxide at near room temperature and a pressure of from 35 to 40 bar.
The procedure according to Example 1 was repeated except that the carbon dioxide pressure was 55.9 bar. A solid to liquid transition (i.e., deliquescence) of the BGLU was observed. […] See FIG. 3, Panel (C) and FIG. 3, Panel (D). Upon reaching liquid-vapor equilibrium pressure, the liquid carbon dioxide formed a separate layer on top of the viscous melt containing carbon dioxide.
BGLU is a white solid that melts at 132° C. under atmospheric pressure conditions (FIG. 3, Panel (A)). However, as BGLU is exposed to CO2 near room temperature (23.0° C.) in a conventional high-pressure view cell, it absorbs CO2 and becomes “wetted” with CO2 at a pressure of 35-40 bar. The white solid appears as a salt does in a humid environment. Furthermore, at a gaseous CO2 pressure of 55.9 bar a solid-to-liquid transition (deliquescence) occurs (FIG. 3, Panel (B)). This is analogous to the deliquescence of hygroscopic materials absorbing atmospheric moisture. […] Upon reaching the liquid-vapor equilibrium pressure, the liquid CO2 forms a separate layer on top of the viscous melt containing CO2. However, the melt easily mixes with the upper layer of liquid CO2 on stirring and forms a single-phase liquid mixture in contact with the gaseous CO2 phase (FIG. 3, Panel (E)). Further addition of CO2 only dilutes this liquid phase (FIG. 3F). Although, CO2-induced swelling (Rover et al., (1999) Macromolecules 32: 8965-8973) and CO2-assisted melting point depression (Zhang & Handa, (1997) Macromolecules 30: 8505-8507.) have been reported in polymers by sorption of CO2 under high pressures, the materials are not readily miscible in liquid and supercritical CO2, indicating the lack of a significant attractive interaction.

[2] = Solubility and cloud-point behaviour in supercritical CO2 at 40 °C; assay type: physicochemical; conditions: for miscibility with CO2 from cloud-point data: scCO2, 40.0° C., relatively low pressures, up to 30% (wt); for solubility behaviour in supercritical CO2: supercritical CO2, 40° C.
Procedure: The solubility of BGLU and AGLU in supercritical carbon dioxide were examined at 40° C. […] The behavior is illustrated in FIG. 3. At the cloud point pressure, phase separation commences between the supercritical carbon dioxide and the sugar ester melt. Upon lowering the pressure, the material reappears in the solid state (see FIG. 4).
The cloud-point pressures of these systems in scCO2 were examined at 40.0° C. As in the subcritical case, initially the solid melts and swells (for AGLU and BGLU) and all three peracetylated sugars readily go into a single-phase, scCO2 system. A plot of the cloud-point pressure versus the weight percent for AGLU, BGLU, and BGAL dissolved in supercritical CO2 at 40.0° C. is given in FIG. 4. At the cloud-point pressure, phase separation begins between scCO2 and the sugar ester. Upon lowering the pressure, the material reappears in the solid state. No cloud-point measurements were made above 30% (wt) due to limitations arising from the volume of the view cell and the rapid swelling of the sample in the cases of AGLU and BGLU.

CC(=O)OC[C@H]1O[C@H](OC(C)=O)[C@H](OC(C)=O)[C@@H](OC(C)=O)[C@@H]1OC(C)=O [AGLU, alpha 1,2,3,4,6-pentaacetyl-D-glucose]
deliquescence point, amount lower than that of BGLU ([1]; difference relative to BGLU): 6-7 bar | miscibility with CO2 from cloud-point data [2]: complete miscibility | solubility behaviour in supercritical CO2 [2]: melted, swelled, and readily dissolved

CC(=O)OC[C@H]1O[C@@H](OC(C)=O)[C@H](OC(C)=O)[C@@H](OC(C)=O)[C@H]1OC(C)=O [BGAL, beta 1,2,3,4,6-pentaacetyl β-D-galactose]
deliquescence in CO2 ([1]; contact with CO2): does not exhibit deliquescence | solubility / miscibility in liquid CO2 [1]: readily soluble

CC(=O)OC[C@H]1O[C@@H](OC(C)=O)[C@H](OC(C)=O)[C@@H](OC(C)=O)[C@@H]1OC(C)=O [BGLU, beta 1,2,3,4,6-pentaacetyl-D-glucose]
concentration in the CO2-induced melt ([1]; approximate estimate, melt can be diluted with liquid or scCO2 in any proportion): more than 80 wt % | swelling of the melt on CO2 absorption ([1]; changes in gaseous CO2 pressure of only 2 and 3 bar above deliquescence pressure): swells to many times its original volume | gaseous CO2 pressure at which solid-to-liquid transition (deliquescence) occurs ([1]; gaseous CO2, 23.0° C., high-pressure view cell): 55.9 bar | solubility / miscibility in liquid CO2 [1]: complete miscibility | CO2 pressure at which the solid absorbs CO2 and becomes wetted ([1]; near room temperature (23.0° C.)): 35-40 bar | miscibility with CO2 from cloud-point data [2]: complete miscibility | solubility behaviour in supercritical CO2 [2]: melted, swelled, and readily dissolved
